Laboratory results published in US11285156B2, “Substituted piperazines as KRAS G12C inhibitors” (Amgen Inc., priority 2018, dated 2022).
Where two headings read alike, the source gives them in different places.

Tests used:
[1] = system: Phosphorylation of ERK1/2 in A549 cells; test: Phospho-ERK1/2 MSD assay in A549 cells; format: cell-based; conditions: read-out: p-ERK IC50 (2 h, A549; μM), 2 h compound treatment, A549 cells, EGF stimulated
Method in brief: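 Phospho-ERK1/2 was quantified by MSD immunoassay in RIPA lysates of MIA PaCa-2 or A549 cells. Before lysis, cells received 10 ng/mL EGF for 10 min after 2 or 4 h exposure at 37° C. to a compound concentration series.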

[2] = molecular target: GDP-bound KRAS protein (aa 1-169), containing both G12C and C118A amino acid substitutions (Homo sapiens (Human), UniProt P01116, C118A/G12C); test: Coupled nucleotide exchange assay (SOS-mediated nucleotide exchange, AlphaScreen); format: biochemical; conditions: 5 min compound pre-incubation; for IC50: read-out: Coupled exchange IC50 (5 min; μM)
Sequence of GDP-bound KRAS protein (aa 1-169), containing both G12C and C118A amino acid substitutions (P01116 other isoform, or with tags, fused parts or gaps G12C/C118A): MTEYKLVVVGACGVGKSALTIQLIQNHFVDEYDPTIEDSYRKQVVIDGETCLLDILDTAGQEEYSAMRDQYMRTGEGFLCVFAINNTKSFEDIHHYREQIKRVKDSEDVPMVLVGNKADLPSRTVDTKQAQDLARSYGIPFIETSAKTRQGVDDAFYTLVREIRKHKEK

[3] = system: Phosphorylation of ERK1/2 in MIA PaCa-2 cells; test: Phospho-ERK1/2 MSD assay in MIA PaCa-2 cells; format: cell-based; conditions: read-out: p-ERK IC50 (2 h, MiaPaCa-2; μM), 2 h compound treatment, MIA PaCa-2 cells, EGF stimulated
Method in brief: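 Phospho-ERK1/2 measured by MSD electrochemiluminescence kit in RIPA lysates of MIA PaCa-2 cells. Cells were treated with compound titrations for 2 or 4 h at 37 °C, 5% CO2, followed by a 10 min pulse of 10 ng/mL EGF.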

Coupled exchange IC50 (5 min; μM) [2] | IC50 [1] | IC50 [3] | Compound | IC50 ([1]; Homo sapiens, A549, 2 h) | IC50 [2] | IC50 ([3]; Homo sapiens, MIA PaCa-2, 2 h)
 |  |  | C=CC(=O)N1C[C@H](C)N(c2nc(=O)n(-c3c(C(C)C)nc(CN4CCCC4)nc3C(C)C)c3nc(-c4ccccc4F)c(Cl)cc23)C[C@H]1C [Example 163, 6-Chloro-1-[4,6-diisopropyl-2-(pyrrolidin-1-ylmethyl)pyrimidin-5-yl]-4-[(2S,5R)-2,5-dimethyl-4-prop-2-enoyl-piperazin-1-yl]-7-(2-fluorophenyl)pyrido[2,3-d]pyrimidin-2-one] | > 7.5 µM | 0.127 µM | 0.055 µM
 |  |  | C=CC(=O)N1C[C@H](C)N(c2nc(=O)n(-c3c(C(C)C)nc(C)nc3C(C)C)c3nc(-c4ccccc4F)c(Cl)cc23)C[C@H]1C [Example 167, 6-Chloro-1-(4,6-diisopropyl-2-methyl-pyrimidin-5-yl)-4-[(2S,5R)-2,5-dimethyl-4-prop-2-enoyl-piperazin-1-yl]-7-(2-fluorophenyl)pyrido[2,3-d]pyrimidin-2-one] | > 7.5 µM | 0.052 µM | 0.083 µM
 |  |  | C=CC(=O)N1C[C@H](C)N(c2nc(=O)n(-c3c(C(C)C)nc(C4CC4)nc3C(C)C)c3nc(-c4ccccc4F)c(Cl)cc23)C[C@H]1C [Example 168, 6-Chloro-1-(2-cyclopropyl-4,6-diisopropyl-pyrimidin-5-yl)-4-[(2S,5R)-2,5-dimethyl-4-prop-2-enoyl-piperazin-1-yl]-7-(2-fluorophenyl)pyrido[2,3-d]pyrimidin-2-one] | 4.34 µM | 0.096 µM | 0.198 µM
 |  |  | C=CC(=O)N1C[C@H](C)N(c2nc(=O)n(-c3c(C(C)C)nc(CN4CCN(C)CC4)nc3C(C)C)c3nc(-c4ccccc4F)c(Cl)cc23)C[C@H]1C [Example 170, 6-Chloro-1-[4,6-diisopropyl-2-[(4-methylpiperazin-1-yl)methyl]pyrimidin-5-yl]-4-[(2S,5R)-2,5-dimethyl-4-prop-2-enoyl-piperazin-1-yl]-7-(2-fluorophenyl)pyrido[2,3-d]pyrimidin-2-one] | > 7.5 µM | 0.064 µM | 0.077 µM
 |  |  | C=CC(=O)N1C[C@H](C)N(c2nc(=O)n(-c3c(C(C)C)ncnc3C(C)C)c3nc(-c4ccccc4C(F)(F)F)c(Cl)cc23)C[C@H]1C [Example 172, 6-Chloro-1-(4,6-diisopropylpyrimidin-5-yl)-4-[(2S,5R)-2,5-dimethyl-4-prop-2-enoyl-piperazin-1-yl]-7-[2-(trifluoromethyl)phenyl]pyrido[2,3-d]pyrimidin-2-one] | > 7.5 µM | 0.08 µM | 0.099 µM
0.069 µM |  |  | C=CC(=O)N1C[C@H](C)N(c2nc(=O)n(-c3c(C(C)C)ncnc3C(C)C)c3nc(-c4cc(O)ccc4C)c(Cl)cc23)C[C@H]1C [Example 174, 6-Chloro-1-(4,6-diisopropylpyrimidin-5-yl)-4-[(2S,5R)-2,5-dimethyl-4-prop-2-enoyl-piperazin-1-yl]-7-(5-hydroxy-2-methyl-phenyl)pyrido[2,3-d]pyrimidin-2-one] | > 7.5 µM |  | 0.082 µM
 |  |  | C=CC(=O)N1CCN(c2nc(CN3CCOCC3)c(-c3ccccc3C(C)C)c3nc(-c4ccccc4F)c(Cl)cc23)CC1 [Example 181, 1-(4-(3-Chloro-2-(2-fluorophenyl)-8-(2-isopropylphenyl)-7-(morpholinomethyl)-1,6-naphthyridin-5-yl)piperazin-1-yl)prop-2-en-1-one] | > 7.5 µM | 4.53 µM | 10 µM
 |  |  | C=CC(=O)N1C[C@H](C)N(c2nc(=N)n(-c3ccccc3C(C)C)c3nc(-c4ccccc4F)c(Cl)cc23)C[C@H]1C [Example 185, 1-((2R,5S)-4-(6-Chloro-7-(2-fluorophenyl)-2-imino-1-(2-isopropylphenyl)-1,2-dihydropyrido[2,3-d]pyrimidin-4-yl)-2,5-dimethylpiperazin-1-yl)prop-2-en-1-one] | > 7.5 µM | 0.055 µM | 0.08 µM
 |  |  | C=CC(=O)N1C[C@H](C)N(c2nc(=O)n(-c3ccccc3C(C)C)c3nc(-c4ccccc4F)c(Cl)cc23)C[C@H]1C [Example 186, 4-((2S,5R)-4-Acryloyl-2,5-dimethylpiperazin-1-yl)-6-chloro-7-(2-fluorophenyl)-1-(2-isopropylphenyl)pyrido[2,3-d]pyrimidin-2(1H)-one] | > 7.5 µM | 0.093 µM | 0.199 µM
0.09 µM |  |  | C=CC(=O)N1C[C@H](C)N(c2nc(=O)n(-c3c(C(C)C)nc(N(C)C(C)=O)nc3C(C)C)c3nc(-c4ccccc4F)c(Cl)cc23)C[C@H]1C [Example 187, N-[5-[6-Chloro-4-[(2S,5R)-2,5-dimethyl-4-prop-2-enoyl-piperazin-1-yl]-7-(2-fluorophenyl)-2-oxo-pyrido[2,3-d]pyrimidin-1-yl]-4,6-diisopropyl-pyrimidin-2-yl]-N-methyl-acetamide] | 0.317 µM |  | 0.081 µM
0.038 µM |  |  | C=CC(=O)N1C[C@H](C)N(c2nc(=O)n(-c3c(C(C)C)nc(NC(C)=O)nc3C(C)C)c3nc(-c4ccccc4F)c(Cl)cc23)C[C@H]1C [Example 188, N-[5-[6-Chloro-4-[(2S,5R)-2,5-dimethyl-4-prop-2-enoyl-piperazin-1-yl]-7-(2-fluorophenyl)-2-oxo-pyrido[2,3-d]pyrimidin-1-yl]-4,6-diisopropyl-pyrimidin-2-yl]acetamide] | 4.98 µM |  | 0.04 µM
 |  |  | C=CC(=O)N1C[C@H](C)N(c2nc(=O)n(-c3c(N)ncnc3C(C)C)c3nc(-c4ccccc4F)c(Cl)cc23)C[C@H]1C [Example 189, 4-((2S,5R)-4-Acryloyl-2,5-dimethylpiperazin-1-yl)-1-(4-amino-6-isopropylpyrimidin-5-yl)-6-chloro-7-(2-fluorophenyl)pyrido[2,3-d]pyrimidin-2(1H)-one] | > 7.5 µM | 0.158 µM | 0.209 µM
0.126 µM |  |  | C=CC(=O)N1C[C@H](C)N(c2nc(=O)n(-c3c(N)ncnc3C(C)C)c3nc(-c4c(O)cccc4F)c(Cl)cc23)C[C@H]1C [Example 190, 4-((2S,5R)-4-Acryloyl-2,5-dimethylpiperazin-1-yl)-1-(4-amino-6-isopropylpyrimidin-5-yl)-6-chloro-7-(2-fluoro-6-hydroxyphenyl)pyrido[2,3-d]pyrimidin-2(1H)-one] | > 7.5 µM |  | 1.71 µM
0.029 µM |  |  | C=CC(=O)N1C[C@H](C)N(c2nc(=O)n(-c3c(N)ncnc3C(C)C)c3nc(-c4c(N)cccc4F)c(Cl)cc23)C[C@H]1C [Example 192, 4-((2S,5R)-4-Acryloyl-2,5-dimethylpiperazin-1-yl)-7-(2-amino-6-fluorophenyl)-1-(4-amino-6-isopropylpyrimidin-5-yl)-6-chloropyrido[2,3-d]pyrimidin-2(1H)-one] | > 7.5 µM |  | 0.161 µM
 |  |  | C=CC(=O)N1C[C@H](C)N(c2nc(=O)n(-c3c(C)nc(C)nc3C(C)C)c3nc(-c4ccccc4F)c(Cl)cc23)C[C@H]1C [Example 193, 4-((2S,5R)-4-Acryloyl-2,5-dimethylpiperazin-1-yl)-6-chloro-7-(2-fluorophenyl)-1-(4-isopropyl-2,6-dimethylpyrimidin-5-yl)pyrido[2,3-d]pyrimidin-2(1H)-one] | > 7.5 µM | 0.056 µM | 0.055 µM
 |  |  | C=CC(=O)N1C[C@H](C)N(c2nc(=O)n(-c3c(C)ncnc3C(C)C)c3nc(-c4ccccc4F)c(Cl)cc23)C[C@H]1C [Example 194, 4-((2S,5R)-4-Acryloyl-2,5-dimethylpiperazin-1-yl)-6-chloro-7-(2-fluorophenyl)-1-(4-isopropyl-6-methylpyrimidin-5-yl)pyrido[2,3-d]pyrimidin-2(1H)-one] | > 7.5 µM | 0.186 µM | 0.048 µM
 |  |  | C=CC(=O)N1C[C@H](C)N(c2nc(=O)n(-c3c(C(C)C)cnnc3C(C)C)c3nc(-c4ccccc4F)c(Cl)cc23)C[C@H]1C [Example 205, 4-((2S,5R)-4-Acryloyl-2,5-dimethylpiperazin-1-yl)-6-chloro-1-(3,5-diisopropylpyridazin-4-yl)-7-(2-fluorophenyl)pyrido[2,3-d]pyrimidin-2(1H)-one] | > 7.5 µM | 0.08 µM | 0.095 µM
0.098 µM | > 7.5 µM | 0.139 µM | C=CC(=O)N1[C@H](C)CN(c2nc(=O)n(-c3c(C(C)C)cnnc3C(C)C)c3nc(-c4ccccc4F)c(Cl)cc23)C[C@@H]1C [Example 206-2, 4-(cis-4-Acryloyl-3,5-dimethylpiperazin-1-yl)-6-chloro-1-(3,5-diisopropylpyridazin-4-yl)-7-(2-fluorophenyl)pyrido[2,3-d]pyrimidin-2(1H)-one] |  |  | 
0.231 µM |  |  | C=CC(=O)N1C[C@H](C)N(c2nc(=O)n(-c3ccc(S(C)(=O)=O)cc3C(C)C)c3nc(-c4ccccc4F)c(Cl)cc23)C[C@H]1C [Example 208, 4-((2S,5R)-4-Acryloyl-2,5-dimethylpiperazin-1-yl)-6-chloro-7-(2-fluorophenyl)-1-(2-isopropyl-4-(methylsulfonyl)phenyl)pyrido[2,3-d]pyrimidin-2(1H)-one] | > 7.5 µM |  | 0.14 µM
